Active and inactive are the calls of the source.
Legend:
Protein Wnt-3a = Protein Wnt-3a (Mus musculus, UniProt P27467); test: SAR analysis of small molecule antagonists of Gli-SUFU in a Wnt3a luminescent reporter assay.; format: functional
[1] = miR-122 activators in hepatoma reporter cells, dose response, cell-based, Huh7 psiCHECK-miR122, Renilla luciferase, cherry-picked (AID 651956); format: functional;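 also: huh7 hepatoma cells stably carrying a psiCHECK-2 miR-122 sensor plasmid; renilla luciferase signal reporting endogenous miR-122 activity after 48 h compound exposure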
[2] = HEK293T cytotoxicity, dose response, cytotoxicity control for miR-122 modulator project, cell-based, activator set, cherry-pick (AID 720690); format: functional;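 also: HEK293T human cells scored for general mammalian cytotoxicity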
[3] = HEK293T cytotoxicity, dose response, cytotoxicity control for miR-122 modulator project, cell-based, inhibitor set, cherry-pick, set 2 (AID 720697); format: functional
Mu-type opioid receptor = Mu-type opioid receptor (Homo sapiens, UniProt P35372); format: functional, cell-based;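 also: U2OS cells with beta-arrestin recruitment to OPRM1 by beta-gal complementation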
[4] = target: 5-hydroxytryptamine receptor 2A (Mus musculus, UniProt P35363); format: functional, cell-based;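 also: CHO-K1 cells with tagged receptor and beta-arrestin; agonist potency measured as compound-induced activation of the receptor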
[5] = target: T1, Trace amine-associated receptor 1 (Homo sapiens, UniProt Q96RJ0); test: Counterscreen for agonists of the human trace amine associated receptor 1 (hTAAR1): Fluorescence-based cell-based high throughput dose response assay to identify hTAAR1 agonist that also desensitize TAAR1 receptor response.; format: functional
cells [6] = format: functional, cell-based
[7] = target: T1, Trace amine-associated receptor 1; test: Fluorescence-based cell-based high throughput dose response assay to identify agonists of the human trace amine associated receptor 1 (TAAR1).; format: functional
cells [8] = format: functional, cell-based; remark: listed apart in the source
[9] = target: T2, Rac GTPase-activating protein 1 (Homo sapiens, UniProt Q9H0H5); test: MgcRacGAP GTPase-activating activity inhibitors, confirmation, biochemical, ADP Hunter fluorescence, primary and confirmatory (AID 624330); format: functional
T2 sequence (Q9H0H5 whole entry): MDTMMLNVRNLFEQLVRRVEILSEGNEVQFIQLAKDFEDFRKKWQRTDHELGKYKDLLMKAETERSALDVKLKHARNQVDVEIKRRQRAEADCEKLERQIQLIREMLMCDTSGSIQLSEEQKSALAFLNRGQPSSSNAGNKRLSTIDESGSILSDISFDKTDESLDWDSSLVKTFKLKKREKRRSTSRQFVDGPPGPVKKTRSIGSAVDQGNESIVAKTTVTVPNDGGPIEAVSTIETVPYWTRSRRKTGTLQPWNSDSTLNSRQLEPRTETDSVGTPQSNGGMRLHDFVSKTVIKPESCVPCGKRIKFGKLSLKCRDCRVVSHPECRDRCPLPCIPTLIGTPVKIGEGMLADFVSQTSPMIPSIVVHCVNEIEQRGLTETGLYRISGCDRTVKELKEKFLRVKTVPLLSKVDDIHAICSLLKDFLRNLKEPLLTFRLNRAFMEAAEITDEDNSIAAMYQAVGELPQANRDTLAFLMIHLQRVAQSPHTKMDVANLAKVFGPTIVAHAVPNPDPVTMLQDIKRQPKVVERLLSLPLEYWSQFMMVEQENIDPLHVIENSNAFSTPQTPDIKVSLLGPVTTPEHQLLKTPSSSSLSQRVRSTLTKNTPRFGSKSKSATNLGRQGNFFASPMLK

[10] = target: Long-chain-fatty-acid--AMP ligase FadD28 (Mycobacterium tuberculosis, UniProt P9WQ59); test: Fluorescence polarization aasay to screen for inhibitors that compete for the binding of FadD28 to a bisubstrate Measured in Biochemical System Using Plate Reader - 2147-01_Inhibitor_Dose_CherryPick_Activity.; format: functional, Mycobacterium tuberculosis H37Rv
[11] = target: T3, Zinc finger protein mex-5 (Caenorhabditis elegans, UniProt Q9XUB2); test: MEX-5/TCR-2 RNA interaction inhibitors, dose response, biochemical, C. elegans, fluorescence polarization (AID 1960)
T3 sequence (Q9XUB2 whole entry): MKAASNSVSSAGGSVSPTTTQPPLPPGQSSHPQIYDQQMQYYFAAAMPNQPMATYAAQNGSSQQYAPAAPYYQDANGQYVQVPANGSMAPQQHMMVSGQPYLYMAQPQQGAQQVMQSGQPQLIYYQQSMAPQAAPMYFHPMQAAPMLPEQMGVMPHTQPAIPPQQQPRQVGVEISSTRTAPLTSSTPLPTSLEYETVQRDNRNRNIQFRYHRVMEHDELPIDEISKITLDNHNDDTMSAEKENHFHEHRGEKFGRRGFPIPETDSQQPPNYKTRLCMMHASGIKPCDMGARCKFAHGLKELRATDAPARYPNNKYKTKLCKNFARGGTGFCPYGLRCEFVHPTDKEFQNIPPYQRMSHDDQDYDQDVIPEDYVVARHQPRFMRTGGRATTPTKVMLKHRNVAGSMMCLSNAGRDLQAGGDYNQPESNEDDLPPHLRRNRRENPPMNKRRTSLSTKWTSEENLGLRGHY

[12] = target: T4, RNA-binding protein pos-1 (Caenorhabditis elegans, UniProt G5EF15); test: inhibitors of POS-1/mex-3 RNA binding, dose response, biochemical, fluorescence polarization (AID 1964);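 also: purified POS-1 fused to maltose binding protein made in E. coli; potency of compounds blocking POS-1 binding to fluorescent RNA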
T4 sequence (G5EF15 whole entry): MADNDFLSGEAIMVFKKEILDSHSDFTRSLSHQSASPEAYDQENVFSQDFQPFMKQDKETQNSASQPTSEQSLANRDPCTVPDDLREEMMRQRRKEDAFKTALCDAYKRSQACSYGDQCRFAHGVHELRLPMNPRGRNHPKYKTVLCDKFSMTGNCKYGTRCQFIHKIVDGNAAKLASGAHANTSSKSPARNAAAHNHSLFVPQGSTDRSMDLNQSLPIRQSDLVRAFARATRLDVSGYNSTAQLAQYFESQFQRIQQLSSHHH

[13] = target: T5, Replicative DNA helicase DnaB (Mycobacterium tuberculosis, UniProt P9WMR3); test: DnaB intein splicing inhibitors, dose response, biochemical, cell-free fluorescence (AID 449749); format: functional
T5 sequence (P9WMR3 whole entry): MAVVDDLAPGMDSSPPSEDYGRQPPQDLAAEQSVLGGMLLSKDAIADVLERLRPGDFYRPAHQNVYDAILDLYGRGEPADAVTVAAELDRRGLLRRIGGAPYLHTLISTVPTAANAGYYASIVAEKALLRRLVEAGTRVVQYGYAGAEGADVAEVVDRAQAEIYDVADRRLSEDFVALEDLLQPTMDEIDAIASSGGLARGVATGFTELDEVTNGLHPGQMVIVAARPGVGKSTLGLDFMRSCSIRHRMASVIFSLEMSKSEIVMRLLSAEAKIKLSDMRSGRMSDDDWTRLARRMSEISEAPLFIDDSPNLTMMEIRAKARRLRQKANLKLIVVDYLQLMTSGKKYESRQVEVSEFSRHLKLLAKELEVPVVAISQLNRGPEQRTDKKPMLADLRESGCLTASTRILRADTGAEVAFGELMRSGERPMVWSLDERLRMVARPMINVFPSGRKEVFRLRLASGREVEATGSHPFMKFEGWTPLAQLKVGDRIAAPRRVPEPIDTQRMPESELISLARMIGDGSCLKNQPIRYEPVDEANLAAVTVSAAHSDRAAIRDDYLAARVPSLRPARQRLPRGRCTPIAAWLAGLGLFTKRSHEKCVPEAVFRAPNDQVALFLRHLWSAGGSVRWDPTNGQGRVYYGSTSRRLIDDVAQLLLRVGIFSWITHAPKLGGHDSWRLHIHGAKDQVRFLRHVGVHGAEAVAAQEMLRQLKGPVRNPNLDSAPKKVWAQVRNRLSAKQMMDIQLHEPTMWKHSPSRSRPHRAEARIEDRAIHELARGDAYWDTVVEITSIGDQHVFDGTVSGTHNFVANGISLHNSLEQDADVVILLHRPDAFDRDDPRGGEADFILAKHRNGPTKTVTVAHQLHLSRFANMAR

[14] = target: T6, Sentrin-specific protease 8 (Homo sapiens, UniProt Q96LD8); format: functional
T6 sequence (Q96LD8 whole entry): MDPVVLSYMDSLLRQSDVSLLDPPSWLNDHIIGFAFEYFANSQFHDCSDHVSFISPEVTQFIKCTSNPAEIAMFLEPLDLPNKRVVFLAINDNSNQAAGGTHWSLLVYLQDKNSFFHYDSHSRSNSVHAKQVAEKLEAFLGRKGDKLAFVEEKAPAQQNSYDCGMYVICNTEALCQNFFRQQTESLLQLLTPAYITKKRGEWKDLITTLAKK

Protein RecA = target: T7, Protein RecA (Mycobacterium tuberculosis, UniProt P9WHJ3); test: Fluorescence Cell-Free Homogeneous Dose Retest to Identify Inhibitors of RecA-Intein Splicing Activity. [Related pubchem assays (depositor defined):AID2097, AID2223, AID489010, AID492950]; format: functional
T7 sequence (P9WHJ3 whole entry): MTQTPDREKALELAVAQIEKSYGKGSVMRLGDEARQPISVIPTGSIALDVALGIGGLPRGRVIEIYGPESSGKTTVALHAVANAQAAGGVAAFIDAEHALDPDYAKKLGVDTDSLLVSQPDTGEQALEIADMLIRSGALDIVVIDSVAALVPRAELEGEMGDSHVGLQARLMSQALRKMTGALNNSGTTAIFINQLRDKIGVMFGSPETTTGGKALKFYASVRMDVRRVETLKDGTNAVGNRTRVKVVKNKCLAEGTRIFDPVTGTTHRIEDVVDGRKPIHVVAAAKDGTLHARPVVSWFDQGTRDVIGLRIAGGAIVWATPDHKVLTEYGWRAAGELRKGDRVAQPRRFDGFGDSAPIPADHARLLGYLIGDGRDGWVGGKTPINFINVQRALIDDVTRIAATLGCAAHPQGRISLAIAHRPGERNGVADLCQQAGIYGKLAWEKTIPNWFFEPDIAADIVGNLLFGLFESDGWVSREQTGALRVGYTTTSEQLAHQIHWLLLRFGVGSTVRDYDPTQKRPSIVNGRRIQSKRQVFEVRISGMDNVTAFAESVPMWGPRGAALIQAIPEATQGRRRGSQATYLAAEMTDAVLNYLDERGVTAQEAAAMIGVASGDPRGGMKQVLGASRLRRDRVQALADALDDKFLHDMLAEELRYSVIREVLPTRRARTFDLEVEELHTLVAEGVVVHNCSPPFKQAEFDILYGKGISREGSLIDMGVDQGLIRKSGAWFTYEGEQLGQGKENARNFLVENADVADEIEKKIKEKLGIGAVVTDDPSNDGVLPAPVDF

[15] = target: T6, Sentrin-specific protease 8; format: functional; remark: listed apart in the source

T1 sequence (Q96RJ0 whole entry): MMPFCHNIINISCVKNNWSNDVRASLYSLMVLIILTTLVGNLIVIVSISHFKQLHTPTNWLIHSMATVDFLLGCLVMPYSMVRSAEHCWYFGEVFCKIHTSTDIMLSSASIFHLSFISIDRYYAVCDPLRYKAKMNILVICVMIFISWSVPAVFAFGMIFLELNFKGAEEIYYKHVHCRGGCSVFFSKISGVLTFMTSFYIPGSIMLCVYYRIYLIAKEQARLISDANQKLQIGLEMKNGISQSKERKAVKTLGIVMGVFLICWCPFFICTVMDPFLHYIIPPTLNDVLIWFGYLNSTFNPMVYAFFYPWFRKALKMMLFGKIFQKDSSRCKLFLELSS
Sequence of Mu-type opioid receptor (P35372 whole entry): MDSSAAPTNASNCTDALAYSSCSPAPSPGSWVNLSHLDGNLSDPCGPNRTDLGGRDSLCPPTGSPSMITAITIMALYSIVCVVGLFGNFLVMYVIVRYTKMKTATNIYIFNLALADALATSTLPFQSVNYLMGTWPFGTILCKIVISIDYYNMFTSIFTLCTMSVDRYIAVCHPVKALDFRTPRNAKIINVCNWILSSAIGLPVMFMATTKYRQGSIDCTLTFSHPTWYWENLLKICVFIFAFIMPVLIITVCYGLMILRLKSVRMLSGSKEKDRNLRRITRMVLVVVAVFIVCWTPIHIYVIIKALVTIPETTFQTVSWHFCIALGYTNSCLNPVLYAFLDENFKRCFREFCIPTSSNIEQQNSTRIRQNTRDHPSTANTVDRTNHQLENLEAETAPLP
Sequence of Long-chain-fatty-acid--AMP ligase FadD28 (P9WQ59 whole entry): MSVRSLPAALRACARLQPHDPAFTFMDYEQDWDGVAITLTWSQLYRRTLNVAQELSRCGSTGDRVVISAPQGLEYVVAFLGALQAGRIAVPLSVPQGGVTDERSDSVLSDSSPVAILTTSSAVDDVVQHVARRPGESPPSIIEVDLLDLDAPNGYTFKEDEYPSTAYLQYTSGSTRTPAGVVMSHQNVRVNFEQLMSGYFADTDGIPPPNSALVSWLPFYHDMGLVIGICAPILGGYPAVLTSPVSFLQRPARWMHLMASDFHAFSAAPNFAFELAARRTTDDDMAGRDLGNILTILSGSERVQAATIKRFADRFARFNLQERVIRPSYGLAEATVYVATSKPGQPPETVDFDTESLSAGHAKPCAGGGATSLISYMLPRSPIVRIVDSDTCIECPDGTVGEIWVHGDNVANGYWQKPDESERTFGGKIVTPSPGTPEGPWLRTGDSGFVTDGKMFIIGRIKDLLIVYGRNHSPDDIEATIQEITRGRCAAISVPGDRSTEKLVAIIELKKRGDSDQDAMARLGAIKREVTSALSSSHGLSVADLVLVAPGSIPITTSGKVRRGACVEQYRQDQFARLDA
Sequence of Protein Wnt-3a (P27467 whole entry): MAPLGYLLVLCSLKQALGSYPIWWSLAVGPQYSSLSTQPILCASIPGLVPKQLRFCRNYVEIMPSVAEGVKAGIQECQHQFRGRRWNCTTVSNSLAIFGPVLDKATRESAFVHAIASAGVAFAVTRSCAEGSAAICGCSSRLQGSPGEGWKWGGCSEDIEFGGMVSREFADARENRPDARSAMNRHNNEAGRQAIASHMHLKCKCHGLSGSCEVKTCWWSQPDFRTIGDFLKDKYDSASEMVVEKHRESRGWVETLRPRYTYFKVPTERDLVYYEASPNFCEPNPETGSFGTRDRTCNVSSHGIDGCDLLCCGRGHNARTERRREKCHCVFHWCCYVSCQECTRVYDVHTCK
Sequence of 5-hydroxytryptamine receptor 2A (P35363 whole entry): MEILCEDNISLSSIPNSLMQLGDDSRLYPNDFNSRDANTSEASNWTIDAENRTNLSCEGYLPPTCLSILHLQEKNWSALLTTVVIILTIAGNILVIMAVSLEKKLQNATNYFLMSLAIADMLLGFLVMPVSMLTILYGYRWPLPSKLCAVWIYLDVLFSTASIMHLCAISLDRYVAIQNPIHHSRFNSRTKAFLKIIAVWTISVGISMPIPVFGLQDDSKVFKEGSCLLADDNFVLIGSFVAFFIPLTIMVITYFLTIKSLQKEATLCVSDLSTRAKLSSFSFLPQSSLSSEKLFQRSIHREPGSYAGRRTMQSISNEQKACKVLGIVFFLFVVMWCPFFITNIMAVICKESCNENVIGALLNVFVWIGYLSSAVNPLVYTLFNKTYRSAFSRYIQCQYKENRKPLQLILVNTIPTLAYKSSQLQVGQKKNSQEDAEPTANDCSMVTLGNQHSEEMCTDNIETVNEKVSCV

CC(C)Nc1cc(NC(=O)c2ccccc2)ncn1
IC50 (Protein Wnt-3a): > 21.8 µM (inactive)

C[C@@H]1CN([C@@H](C)CO)C(=O)Cc2cc(NC(=O)c3ccncc3)ccc2O[C@H]1CN(C)Cc1ccc(-c2ccccc2)cc1
AC50 [1]: 4.94 µM (active) | AC50 [2]: 23.6 µM (active) | AC50 [3]: 15.9 µM (active)

Clc1ccc(CN2CCN(c3ncccn3)CC2)cc1
EC50 (Mu-type opioid receptor): 92.5 µM (inactive) | EC50 [4]: 0.153 µM (active)

O=C(C(=O)N1CCc2ccccc2C1)c1cn(CC(=O)N2CCCCC2)c2ccccc12
IC50 [5]: 3.57 µM (active) | IC50 (cells [6]): > 29.9 µM (inactive) | EC50 [7]: 0.879 µM (active) | EC50 (cells [8]): > 29.9 µM (inactive)

O=C(CNS(=O)(=O)c1ccc([N+](=O)[O-])cc1)N/N=C/c1ccc(O)cc1O
IC50 [9]: 128 µM (active) | AC50 [10]: 9.67 µM (active) | EC50 [11]: 8.33 µM (active) | EC50 [12]: 8.98 µM (active)

COC(=O)CCCC1=CC2=C(c3ccccc3)C(=O)C(C)(OC(=O)C3CCCC3)C(=O)C2=CN1CCCCO (stereo not drawn)
AC50 [13]: 68.9 µM (active) | IC50 [14]: 2.93 µM (active) | EC50 (Protein RecA): 18.4 µM (active) | IC50 [15]: 6.43 µM (active)

Reference: ChEMBL document CHEMBL1201862, “PubChem BioAssay data set” (2004)
